According to publication PMC6017115, “Inhibitory Effect of Sauchinone on UDP-Glucuronosyltransferase (UGT) 2B7 Activity” (Molecules : A Journal of Synthetic Chemistry and Natural …, 2018):

Columns and labels:
UGT1A6 = target: T1, UGT1A6 (Homo sapiens, UniProt P19224); assay: Inhibition of UGT1A6 (serotonin glucuronidation) in human liver microsomes; assay type: in vitro ADME
T1 construct: tissue Corning Life Sciences 452156; host or cells: pooled human liver microsomes
T1 sequence (P19224 27-532): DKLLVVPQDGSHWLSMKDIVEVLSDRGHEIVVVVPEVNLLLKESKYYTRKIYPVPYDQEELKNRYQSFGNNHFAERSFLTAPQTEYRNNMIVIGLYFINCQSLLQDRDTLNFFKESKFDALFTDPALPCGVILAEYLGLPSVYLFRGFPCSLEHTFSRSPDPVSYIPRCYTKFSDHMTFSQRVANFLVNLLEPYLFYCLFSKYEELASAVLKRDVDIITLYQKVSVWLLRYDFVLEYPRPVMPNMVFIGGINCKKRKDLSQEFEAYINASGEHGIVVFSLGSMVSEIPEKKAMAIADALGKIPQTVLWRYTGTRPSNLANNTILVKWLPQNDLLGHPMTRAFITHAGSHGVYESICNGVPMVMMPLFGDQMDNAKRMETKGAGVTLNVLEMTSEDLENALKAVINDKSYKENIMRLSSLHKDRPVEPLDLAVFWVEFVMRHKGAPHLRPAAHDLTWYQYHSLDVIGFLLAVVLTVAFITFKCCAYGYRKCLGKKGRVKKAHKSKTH
Protocol: Their IC50 values were compared to that of sauchinone. […] UGT-mediated activities in the presence of sauchinone as an inhibitor were expressed as percentages of corresponding control values (in absence of sauchinone). From percentages of control activity versus inhibitor concentrations, a sigmoid shaped curve was fitted to the data and IC50 as an enzyme inhibition parameter was calculated by fitting the Hill equation to the data using GraphPad Prism 5 (GraphPad Software Inc., San Diego, CA, USA).

Ugt2b7 [1] = assay: Inhibition of Ugt2b7 (zidovudine) in mice liver microsomes; assay type: in vitro ADME; details: mouse, pH 7.6, probe zidovudine (100 μM, in UGT substrate cocktail)
Protocol: Their IC50 values were compared to that of sauchinone. […] Mice were sacrificed and then livers were removed and rinsed with saline. After weighing the livers, they were homogenized with a four-fold volume of ice-cold homogenizing buffer (0.154 M KCl, 50 mM Tris-base, 1 mM EDTA, pH 7.4). After centrifugation for 35 min at 9000× g and 4 °C, the supernatants were centrifuged for 95 min at 100,000× g and at 4 °C. The supernatants were discarded and the pellets were homogenized again with ice-cold homogenizing buffer. These aliquots were stored at −80 °C. The subsequent process to evaluate the inhibitory effects of sauchinone on UGT activities in MLM was the same as those using HLM. UGT-mediated activities in the presence of sauchinone as an inhibitor were expressed as percentages of corresponding control values (in absence of sauchinone). From percentages of control activity versus inhibitor concentrations, a sigmoid shaped curve was fitted to the data and IC50 as an enzyme inhibition parameter was calculated by fitting the Hill equation to the data using GraphPad Prism 5 (GraphPad Software Inc., San Diego, CA, USA).

[2] = parameters: method as in PMID 25747980; details: mice; oral administration of 100 mg/kg sauchinone; read-out: Cmax in mice plasma; cited from earlier work
UGT2B7 [3] = target: T2, UGT2B7 (Homo sapiens, UniProt P16662); assay: Enzyme kinetic assay (Ki, Dixon plot) of UGT2B7-mediated zidovudine glucuronidation; details: for inhibition mode on UGT2B7: Dixon plot, visual inspection
T2 sequence (P16662 24-529): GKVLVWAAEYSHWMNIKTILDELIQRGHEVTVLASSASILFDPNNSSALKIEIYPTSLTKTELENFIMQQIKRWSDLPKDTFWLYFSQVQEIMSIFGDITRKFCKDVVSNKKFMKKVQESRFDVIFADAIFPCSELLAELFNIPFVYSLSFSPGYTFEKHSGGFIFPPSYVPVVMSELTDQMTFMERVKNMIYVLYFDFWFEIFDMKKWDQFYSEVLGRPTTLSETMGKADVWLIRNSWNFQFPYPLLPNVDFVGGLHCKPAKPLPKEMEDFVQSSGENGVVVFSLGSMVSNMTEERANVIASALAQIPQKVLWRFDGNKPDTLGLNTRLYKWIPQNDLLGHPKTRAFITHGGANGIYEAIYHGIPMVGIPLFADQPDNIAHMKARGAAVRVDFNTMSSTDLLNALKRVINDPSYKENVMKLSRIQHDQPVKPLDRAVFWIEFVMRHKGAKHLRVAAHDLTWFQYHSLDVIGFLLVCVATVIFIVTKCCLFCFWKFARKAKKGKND
Protocol: Inhibitory effects of sauchinone on UGT1A1, 1A3, 1A4, 1A6, 1A9, and 2B7 activities were evaluated using HLMs. […] Spiked volume of UGT cocktail set was 1% (v/v) of total volume of mixture. […] The reaction was initiated by adding 5 mM UDPGA to a final volume of 150 μL and incubated at 37 °C for 15 or 60 min in a thermomixer at 500 rpm. Each reaction was stopped by adding 150 μL of ice-cold methanol containing 50 ng/mL IS. These mixtures were then centrifuged (12,000 rpm for 10 min at 4 °C) and 5 μL of the supernatant was injected into a UPLC-MS/MS system. […] Their IC50 values were compared to that of sauchinone. All inhibitors were dissolved in methanol (except for hecogenin, which was dissolved in dimethyl sulfoxide) and serially diluted to the required concentrations using the same solutions. The final concentration of organic solvent of inhibitors was 1% (v/v). All studies were performed in triplicate and mean values were used in the analysis. The half maximal inhibition constant (IC50) of sauchinone on UGT isoforms was estimated using GraphPad program.
Based on IC50 values, Ki values of sauchinone for UGT1A6 and 2B7 were determined. Concentrations of 0–200 μM of sauchinone were used. Other procedures were similar to those mentioned above in the study of reversible inhibitory effects of sauchinone. Inhibitory characteristics of sauchinone were initially estimated by nonlinear least squares regression analysis and Ki values were determined by Dixon plots.

IC50 (UGT1A6): 758 nM
IC50 (Ugt2b7 [1]): 23000 nM
Ki (UGT2B7 [3]): 524 nM
inhibition mode on UGT2B7 (UGT2B7 [3]): noncompetitively inhibited
inhibition mode on UGT2B7 (UGT2B7 [3]; listed as sauchinone): noncompetitive inhibition mode
Vmax for UGT2B7-mediated zidovudine glucuronidation with inhibitor (UGT2B7 [3]; sauchinone as inhibitor at 50 μM (decrease from 31.5 at 0 μM)): 0.495 μM/min/mg protein
SMILES: C[C@@H]1[C@H]2c3cc4c(cc3O[C@@]35OCOC3=CC(=O)[C@H](C[C@H]1C)[C@@H]25)OCO4 [Sauchinone]
Cmax [2]: 1530 nM
